Structures are written as SMILES.

Data on 6 molecules can be found in patent publication US6156790A, “C-10 carbon-substituted artemisinin-like trioxane compounds having antimalarial, antiproliferative and antitumor activities” (priority 1997, dated 2000).

Data set [1] has as its system P. berghei. To be noted: cited from earlier work.
The test system of data set [2] is Ehrlich ascites tumor (EAT) cells. To be noted: cited from earlier work.
For data set [3] the following is noted: cited from earlier work.
The test system of data set [4] is murine keratinocyte cell line PE. The data set can be described thus: viability by trypan blue exclusion. The format is cell-based. The following applies: 96 hours.
Data set [5] has the same test system. The data set can be described thus: growth inhibition of PE cells (MTT assay). The following applies: 100 nanomolar. Format: cell-based. The procedure: To determine the inhibitory effect of the compositions of the present invention on cell proliferation, screening assays were performed on a murine keratinocyte cell line PE. Cell line PE was chosen for its particular sensitivity to the induction of ornithine decarboxylase (ODC) activity by the extensively characterized tumor promoter TPA. […] PE cell culture medium consisted of Eagle's minimal essential medium without calcium chloride (Whittaker Bioproducts, Walkersville, Mass.) supplemented with 8% chelexed fetal calf serum and 1% antibiotic-antimycotic (Gibco BRL) and the addition of CaCl2 to 0.05 mM Ca^++.
Growth Inhibition. Growth curves, shown in FIGS. 1 and 2, for PE cells treated with calcitriol and the C-10 carbon-substituted dimers 21, 22, 26, 27, and 28 generated by assay for the reduction of the tetrazolium-based compound MTT, see Charmichael, et al., Cancer Res., 47:936-942 (1987). […] PE cells were seeded at a density of 5,000 cells/well in 50 μL of medium into 96-well microtiter plates. Twelve hours later, the medium was removed, and cells were treated with 100 μL of fresh medium into which the appropriate amount of calcitrol or analog dissolved in dimethyl sulfoxide (DMSO) had been added, with the concentration of DMSO held constant at 0.1%. […] At 24-hour intervals following the initial treatment of the cells with compounds, 0.1 mg (50 μL of a 2 mg/mL solution) of MTT was added to each well. After 4 hours, the MTT was removed and DMSO added to dissolve the blue formazan dye. Using a microtiter plate reader, the A505 was then determined and cell number calculated from blank-subtracted absorbance values.

Data set [6] deals with NCI-H460. Nature of the data set: cells. Format: cell-based. The following applies: Homo sapiens.
Data set [7] concerns HOP-62. The data set can be described thus: cells. The format is cell-based. To be noted: Homo sapiens, read-out: Log10 TGI (converted).
In data set [8] the test system is MDA-N. The data set can be described thus: cells. The format is cell-based. To be noted: Homo sapiens.
Data set [9] has as its system HOP-92. The data set can be described thus: NCI 60 cell line screen (SRB), non-small cell lung cancer. Format: cell-based. The following applies: Homo sapiens, read-out: Log10 TGI (converted).
Data set [10] relates to SF-295. Nature of the data set: cells. Format: cell-based. To be noted: Homo sapiens, read-out: Log10 TGI (converted).
The subject of data set [11] is ACHN. Nature of the data set: cells. To be noted: Homo sapiens, read-out: Log10 LC50 (converted).
For data set [12], the system named is SNB-75. Nature of the data set: cells. The following applies: Homo sapiens. Format: cell-based.
The test system of data set [13] is KM12. The data set can be described thus: cells. The following applies: Homo sapiens, read-out: Log10 TGI (converted). The format is cell-based.
Data set [14] concerns HT29. The data set can be described thus: cells. The following applies: Homo sapiens, HT-29, read-out: Log10 TGI (converted). The format is cell-based.
Data set [15] relates to MOLT-4. The data set can be described thus: cells. The following applies: Homo sapiens, MOLT-4, read-out: concentration for primary growth inhibition. The procedure: The screening assay is performed on a 96-well microtitre plates.
Dose response curves, shown in the above mentioned Figures, are obtained by exposing various cancer cell lines to compounds having a known concentration ([log10 M]), as discussed in detail above, and then plotting the percentage growth of each cell line for each concentration. […] As discussed previously, the five drug dilutions routinely tested range from 10^-4 to 10^-9 molar.

Data set [16] deals with chloroquine-sensitive P. falciparum (NF54). The data set can be described thus: In vitro antimalarial activity ([3H]hypoxanthine incorporation). Format: cell-based. The following applies: in words. On the procedure:
Activity was determined by measuring the incorporation of [^3 H]hypoxanthine, by the methods of Desjardins and Milhouse, with the following modofications, see […].; Haynes, […]. Antimicrob. Agents Chemother., 16:710 (1979); Milhous, W. K.; Weatherly, […].; Antimicrob. Agents Chemother., 27: 525 (1985). […] Parasitemia was maintained at 0.05-3% and doubling time at approximately 15 hours by twice weekly change of medium and replenishment with fresh erythrocytes. […] Sigma-Aldrich #27,043-1). DMSO solutions were diluted 500-fold in medium, serially diluted in 0.2% DMSO in medium (to maintain constant solvent concentration), then 100 μL aliquots were pipetted into microtiter plate wells (Costar 3595). […] Plates included at least 8 wells of no drug controls (4 with and 4 without DMSO) and 4 wells of uninfected erythrocytes. […] Cells were harvested (Brandel MB-48R) onto GF-C glass filters (Brandel). The filters were washed five times with 3 mL water per sample spot, dried under a heat lamp, and counted (Beckman Model LS-6500) in scintillation cocktail (ICN Cytoscint). Decays per minute (dpm) values were downloaded and analyzed (Power MFacintosh 7200/90; Microsoft Excel 5.0), to yield the mean and standard deviation at each drug concentration.

Data set [17] relates to NCI-H226. Nature of the data set: NCI 60 cell line screen (SRB), non-small cell lung cancer. Format: cell-based. The following applies: Homo sapiens.
Data set [18] has as its system NCI-H23. The data set is described as above. To be noted: Homo sapiens. Format: cell-based.
Data set [19] has as its system A549/ATCC. The description is as above. The format is cell-based. To be noted: Homo sapiens.
For data set [20], the system named is PC-3. Nature of the data set: cells. The format is cell-based. To be noted: Homo sapiens, PC-3, read-out: Log10 TGI.
Data set [21] has as its system 60 cell line panel. The data set can be described thus: NCI 60 cell line screen, whole panel. The format is cell-based.
Data set [22] relates to A498. Nature of the data set: cells. Format: cell-based. To be noted: Homo sapiens, read-out: Log10 GI50 (converted).
In data set [23] the test system is NCI-H522. The data set can be described thus: cells. To be noted: Homo sapiens, read-out: Log10 TGI (converted). Format: cell-based.
In data set [24] the test system is HS 578T. Nature of the data set: cells. The format is cell-based. The following applies: Homo sapiens, read-out: Log10 TGI (converted).
Data set [25] has as its system SF-268. The data set can be described thus: NCI 60 cell line screen (SRB), CNS cancer. Format: cell-based. The following applies: Homo sapiens, read-out: Log10 TGI (converted).
Data set [26] relates to EKVX. Nature of the data set: NCI 60 cell line screen (SRB), non-small cell lung cancer. Format: cell-based. The following applies: Homo sapiens.
Data set [27] relates to MDA-MB-435. Nature of the data set: cells. Format: cell-based. The following applies: Homo sapiens, read-out: Log10 TGI (converted).
Data set [28] relates to IGROVI. The data set can be described thus: cells. To be noted: 60 cell.
Data set [29] relates to COLO 205. Nature of the data set: NCI 60 cell line screen (SRB), colon cancer. To be noted: Homo sapiens, read-out: Log10 TGI (converted). The format is cell-based.
The subject of data set [30] is T-47D. The data set can be described thus: cells. Format: cell-based. To be noted: Homo sapiens, T47D, read-out: Log10 TGI.
The test system of data set [31] is HCT-15. Nature of the data set: cells. To be noted: Homo sapiens, HCT-15, read-out: Log10 TGI. The format is cell-based.
The test system of data set [32] is MDA-MB231/ATCC. Nature of the data set: cells. To be noted: Homo sapiens, MDA-MB-231, read-out: Log10 TGI (converted). Format: cell-based.
Data set [33] has as its system BT-549. Nature of the data set: cells. The format is cell-based. The following applies: Homo sapiens, read-out: Log10 TGI (converted).
In data set [34] the test system is K-562. The data set can be described thus: cells. To be noted: Homo sapiens, K562, read-out: Log10 TGI. The format is cell-based.
For data set [35], the system named is MCF7. Nature of the data set: cells. The format is cell-based. The following applies: Homo sapiens.
The test system of data set [36] is U251. The data set can be described thus: cells. The format is cell-based. To be noted: Homo sapiens, U-251, read-out: Log10 TGI (converted).
Data set [37] deals with HCT-116. The data set can be described thus: cells. Format: cell-based. To be noted: Homo sapiens, read-out: Log10 TGI (converted).
The test system of data set [38] is SF-539. The data set can be described thus: cells. The format is cell-based. To be noted: Homo sapiens, read-out: Log10 TGI (converted).
The conditions of data set [39]: rat liver microsomes; cited from earlier work. (Microsomes from liver hold many membrane-bound enzymes, among them those of drug oxidation.)
Where [40] appears, read: read-out: Log10 LC50 (converted).
Where [41] appears, read: read-out: Log10 TGI (converted).
The mark [42] stands for this setting: read-out: Log10 GI50 (converted).

Turning to `C[C@@H]1CC[C@H]2[C@@H](C)C(OC3O[C@@H]4O[C@@]5(C)CC[C@H]6[C@H](C)CC[C@@H]([C@H]3C)[C@@]46OO5)O[C@@H]3O[C@@]4(C)CC[C@@H]1[C@]32OO4` (some centres unmarked), the “SD90 (parasitemia 90 percent suppressed)” value in [1] (P. berghei-infected mice) was 10 mg/kg. In [2], the “times more cytotoxic than artemisinin” value was “approximately twenty-two” and the “times more cytotoxic than dihydroartemisinin (II-1)” value is recorded as “sixty”. The “times more potent than artemisinin at 50% growth inhibition” value in data set [2] (one cancer cell line) is “approximately twenty-two”.
For the molecule `C[C@@H]1CC[C@H]2[C@@H](C)C(O)O[C@@H]3O[C@@]4(C)CC[C@@H]1[C@]32OO4` (some centres unmarked) [dihydroartemisinin (II-1), dihydroartemisinin], in data set [3], the half-life in plasma entry was “less than two”.
As to `C=C1/C(=C\C=C2/CCC[C@]3(C)[C@@H]([C@H](C)CCCC(C)(C)O)CC[C@@H]23)C[C@@H](O)C[C@@H]1O` [calcitriol, 1α,25-dihydroxyvitamin D3], the “viability of treated cells vs control cells” value in data set [4] is on record as “identical to control cells”.
With `C[C@H]1[C@@H](CC(=O)c2cccc(C(=O)C[C@H]3O[C@@H]4O[C@@]5(C)CC[C@H]6[C@H](C)CC[C@@H]([C@H]3C)[C@@]46OO5)c2)O[C@@H]2O[C@@]3(C)CC[C@H]4[C@H](C)CC[C@@H]1[C@@]24OO3` [Dimer 22], the “antiproliferative activity compared with calcitriol” value in data set [5] was “at least as antiproliferative as calcitrol”. Also, the IC (TGI) in data set [6] (NCI-H460, read-out: Log10 TGI) was more than 100 µM; in [7], more than 100 µM; in data set [8] (setting [41]), more than 100 µM; in data set [9], more than 100 µM; in [10], more than 100 µM; in [12] (setting [41]) it was more than 100 µM. Further, the IC (TGI) in data set [13], in [14], in data set [17] (setting [41]), in [18] (setting [41]), in data set [19] (setting [41]) and in data set [20] was more than 100 µM throughout. Further, the IC (TGI) in [23], in data set [24], in data set [25], in [26] (setting [41]), in data set [27] and in [29] was more than 100 µM in each case. Moreover, the IC (TGI) was more than 100 µM in data set [30]; more than 100 µM in data set [31]; more than 100 µM in data set [32]; more than 100 µM in data set [33]; more than 100 µM in data set [34]; more than 100 µM in data set [35] (MCF7, read-out: Log10 TGI). Besides, the IC (TGI) in data set [36], in data set [37] and in data set [38] was more than 100 µM in each case. The CC50 in data set [6] (NCI-H460, read-out: Log10 LC50 (converted)) was more than 100 µM; in data set [8] (setting [40]), more than 100 µM; in data set [11], more than 100 µM; in [17] (setting [40]), more than 100 µM; in data set [19] (setting [40]), more than 100 µM; in data set [26] (setting [40]), more than 100 µM. Moreover, the CC50 in [28] (Homo sapiens, read-out: Log10 LC50 (converted)) is more than 100 µM. In addition, the GI50 in data set [12] (setting [42]) was 4.37 µM; in data set [15], more than 100 µM; in data set [21] (60 cell, mean over panel, read-out: Log10 GI50 MG MID (converted)), 75.9 µM; in data set [22], 46.8 µM; in data set [28] (setting [42]) it was 0.589 µM; in [35] (MCF7, read-out: Log10 GI50 (converted)) it was 0.389 µM. Besides, the “IC50 compared with artemisinin” value in data set [16] was “lower than that of artemisinin”. Also, in [18] (setting [40]), the median lethal concentration (LC50) (usually the concentration lethal to half of the exposed cells or organisms) is more than 100 µM. Besides, the “Log10 TGI Delta” value in data set [21] (panel) is 0.00. Also, the “Log10 TGI Range” value in data set [21] (panel) was 0.00.
Regarding `CC1=CO[C@@H]2O[C@@]3(C)CC[C@H]4[C@H](C)CC[C@@H]1[C@@]24OO3` [olefinic compound III], the “activity against P. berghei-infected mice” value in data set [1] (in words) was “inactive”.
As for `CCO[C@H]1O[C@@H]2O[C@@]3(C)CC[C@H]4[C@H](C)CC[C@@H]([C@H]1C)[C@@]24OO3` [arteether], in data set [39], the “conversion into dihydroartemisinin (II-1)” value is recorded as “rapidly converted”.
